These results are taken from paper PMC11345769, “(SiFA)SeFe: A Hydrophilic Silicon-Based Fluoride Acceptor Enabling Versatile Peptidic Radiohybrid Tracers” (Journal of medicinal chemistry, 2024).

A short description of the series: stability in human serum (radio-RP-HPLC). Type of series: in vitro ADME. Conditions: 37 °C. On the procedure:
Stability studies in human serum were also performed by incubating the ^18F-labeled ligands [^18F][^natGa]Ga-(SiFA)-SeFe-rhTATE1, [^18F][^natGa]Ga-(SiFA)SeFe-rhTATE2, [^18F][^natLu]Lu-(SiFA)SeFe-rhTATE3 and [^18F][^natLu]Lu-(SiFA)BA-rhTATE3 (for 1 h), as well as the ^177Lu-labeled ligands [^177Lu]Lu-(SiFA)SeFe-rhTATE3 and [^177Lu]Lu-(SiFA)BA-rhTATE3 for 1 and 24 h at 37 °C (Figure 3D). Afterward, the samples were analyzed for the intact tracer by radio-RP-HPLC (see SI, Table S4).
5 MBq of the respective ^18F-/^177Lu-labeled compound was added to 200 μL of human serum (from a healthy volunteer) and incubated at 37 °C for 1 h. After the addition of 50 vol % of cold ethanol and 150 vol % of cold MeCN, centrifugation was performed at 13.000 rpm for 20 min. The supernatant was decanted and centrifuged at 13.000 rpm for 10 min in a centrifuge tube with a 0.45 μm cellulose acetate filter. […] of the remaining filtrate was injected into RP-HPLC and the number of intact radioligand was quantified.

Consider `C[C@@H](O)[C@H](NC(=O)[C@@H]1CSSC[C@H](NC(=O)[C@@H](Cc2ccccc2)NC(=O)COCCOCCNC(=O)[C@@H](CNC(=O)CN2CCN(CC(=O)O)CCN(CC(=O)O)CCN(CC(=O)O)CC2)NC(=O)COCCOCCNC(=O)c2cc(CN)cc([Si](F)(C(C)(C)C)C(C)(C)C)c2)C(=O)N[C@@H](Cc2ccc(O)cc2)C(=O)N[C@H](Cc2c[nH]c3ccccc23)C(=O)N[C@@H](CCCCN)C(=O)N[C@@H]([C@@H](C)O)C(=O)N1)C(=O)O` [[177Lu]Lu-(SiFA)SeFe-rhTATE3, metal not drawn], for which the “Intact tracer in human serum, 24 h” value (n=3) is recorded as 94 ± 3.0%. Moreover, the remaining at 24 h, 25 MBq/mL (human, serum, n=3, read-out: Intact tracer in human serum, 24 h) amounted to 94%.
